Data from patent publication US20260200920A1, “SUBSTITUTED AMINOPYRIDINE COMPOUNDS FOR USE AS AKT1 INHIBITORS” (Atavistik Bio, Inc., priority 2023, published 2026).

Legend:
[1] = target: T1, human recombinant kinase full-length AKT1 E17K (Homo sapiens, UniProt P31749, E17K); assay: AKT1 E17K kinase assay (TR-FRET, Lance); format: biochemical; conditions: 0.6 nM AKT1 E17K, 50 nM Ulight-CREBtide, either 50 μM ATP or 2 mM ATP, 60 min at RT
T1 construct: Purified human recombinant kinase full-length AKT1 E17K was expressed in insect cells; made in house; host or cells: insect cells
How it was run: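 IC50 came from a 10-point, 4-parameter fit of the 665/620 TR-FRET ratio read with Eu-anti-phospho-CREB (Ser133). Reaction at RT for 60 min after 15 min compound preincubation, using 0.6 nM PDPK1-activated full-length AKT1 E17K (insect-cell), 50 nM Ulight-CREBtide, ATP at 50 μM or 2 mM, HEPES pH 7.5, 1% DMSO.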

[2] = target: T2, human recombinant kinase full-length wildtype AKT1 (Homo sapiens, UniProt P31749); assay: AKT1 kinase assay (wildtype, TR-FRET, Lance); format: biochemical; conditions: 0.6 nM wildtype AKT1, 50 nM Ulight-CREBtide, either 50 μM ATP or 2 mM ATP, 60 min at RT
T2 construct: Purified human recombinant kinase full-length wildtype AKT1 was expressed in insect cells; made in house; host or cells: insect cells
How it was run: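 TR-FRET 665/620 ratio quantified phospho-CREBtide formed by PDPK1-activated full-length human AKT1 (0.6 nM, insect-cell-derived) over 60 min at RT with 50 nM ULight-CREBtide and either 50 μM or 2 mM ATP. Compounds were preincubated 15 min with enzyme; IC50 came from 4-parameter fits of 10-point duplicates.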

T1 sequence (P31749 whole entry E17K): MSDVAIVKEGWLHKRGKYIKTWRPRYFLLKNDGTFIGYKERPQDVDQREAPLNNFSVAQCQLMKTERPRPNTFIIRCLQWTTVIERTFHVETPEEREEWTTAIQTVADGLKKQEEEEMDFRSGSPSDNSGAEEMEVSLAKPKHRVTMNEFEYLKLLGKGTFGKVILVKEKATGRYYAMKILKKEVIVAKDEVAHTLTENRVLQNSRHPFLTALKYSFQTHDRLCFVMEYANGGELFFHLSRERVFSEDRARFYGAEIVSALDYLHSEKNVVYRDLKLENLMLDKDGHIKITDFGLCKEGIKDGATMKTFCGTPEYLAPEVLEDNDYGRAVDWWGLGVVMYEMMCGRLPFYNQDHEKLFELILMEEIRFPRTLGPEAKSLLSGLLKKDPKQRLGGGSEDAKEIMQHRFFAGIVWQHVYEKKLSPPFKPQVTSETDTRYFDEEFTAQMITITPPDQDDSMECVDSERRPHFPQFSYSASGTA
T2 sequence (P31749 whole entry): as the sequence (P31749 whole entry E17K) above, with K17E counted along it

Structure (SMILES) | IC50 [1] | IC50 [2]
Nc1ncccc1-c1nc2ccc(-n3cccn3)cc2n1-c1ccc(C2CN(C[C@H]3CC[C@H](C(=O)O)CC3)C2)cc1 [Compound I-72, (1r,4r)-4-((3-(4-(2-(2-aminopyridin-3-yl)-6-(1H-pyrazol-1-yl)-1H-benzo[d]imidazol-1-yl)phenyl)azetidin-1-yl)methyl)cyclohexane-1-carboxylic acid] | ≥ 2000 nM | < 20000 nM
Nc1ncccc1-c1nc2cc(-c3cccnc3)cnc2n1-c1ccc(C2CN(C[C@H]3CC[C@H](C(=O)O)CC3)C2)cc1 [Compound I-73, (1r,4r)-4-((3-(4-(2-(2-aminopyridin-3-yl)-6-(pyridin-3-yl)-3H-imidazo[4,5-b]pyridin-3-yl)phenyl)azetidin-1-yl)methyl)cyclohexane-1-carboxylic acid] | ≥ 2000 nM | < 20000 nM
CC(C)[C@@H]([C@H]1CC[C@H](C(=O)O)CC1)N1CC(c2ccc(-n3c(-c4cccnc4N)nc4ccc(-c5ccccc5)nc43)cc2)C1 [Compound I-74, (1S,4r)-4-((S)-1-(3-(4-(2-(2-aminopyridin-3-yl)-5-phenyl-3H-imidazo[4,5-b]pyridin-3-yl)phenyl)azetidin-1-yl)-2-methylpropyl)cyclohexane-1-carboxylic acid] | ≥ 2000 nM | < 20000 nM
Nc1ncccc1-c1nc2ccc(-c3ccccc3)nc2n1-c1ccc(C2CCCN(CC3CCC(C(=O)O)CC3)C2)cc1 (stereo not drawn) [Compound I-77, 4-((3-(4-(2-(2-aminopyridin-3-yl)-5-phenyl-3H-imidazo[4,5-b]pyridin-3-yl)phenyl)piperidin-1-yl)methyl)cyclohexane-1-carboxylic acid] | ≥ 2000 nM | < 20000 nM
CC(c1ccc(-n2c(-c3cccnc3N)nc3ccc(-c4ccccc4)nc32)cc1)N1CCC(C(=O)O)CC1 (stereo not drawn) [Compound I-79, 1-(1-(4-(2-(2-aminopyridin-3-yl)-5-phenyl-3H-imidazo[4,5-b]pyridin-3-yl)phenyl)ethyl)piperidine-4-carboxylic acid] | ≥ 2000 nM | < 20000 nM
Nc1ncccc1-c1nc2ccc(-c3ccccc3)nc2n1-c1ccc(C(=O)N2CC3(CC(C(=O)O)C3)C2)cc1 [Compound I-80, 2-(4-(2-(2-aminopyridin-3-yl)-5-phenyl-3H-imidazo[4,5-b]pyridin-3-yl)benzoyl)-2-azaspiro[3.3]heptane-6-carboxylic acid] | ≥ 2000 nM | < 20000 nM
CC(NC1CCC(C(=O)O)C1)c1ccc(-n2c(-c3cccnc3N)nc3ccc(-c4ccccc4)nc32)cc1F (stereo not drawn) [Compound I-81, 3-((1-(4-(2-(2-aminopyridin-3-yl)-5-phenyl-3H-imidazo[4,5-b]pyridin-3-yl)-2-fluorophenyl)ethyl)amino)cyclopentane-1-carboxylic acid] | ≥ 2000 nM | < 20000 nM
CC(C)(C(=O)O)C1CCN(C(=O)c2ccc(-n3c(-c4cccnc4N)nc4ccc(-c5ccccc5)nc43)cc2)C1 (stereo not drawn) [Compound I-82, 2-(1-(4-(2-(2-aminopyridin-3-yl)-5-phenyl-3H-imidazo[4,5-b]pyridin-3-yl)benzoyl)pyrrolidin-3-yl)-2-methylpropanoic acid] | ≥ 2000 nM | < 20000 nM
CC(c1ccc(-n2c(-c3cccnc3N)nc3ccc(-c4ccccc4)nc32)cc1)N1CCCC(C(=O)O)C1 (stereo not drawn) [Compound I-83, 1-(1-(4-(2-(2-aminopyridin-3-yl)-5-phenyl-3H-imidazo[4,5-b]pyridin-3-yl)phenyl)ethyl)piperidine-3-carboxylic acid] | ≥ 2000 nM | < 20000 nM
CC(c1ccc(-n2c(-c3cccnc3N)nc3ccc(-c4ccccc4)nc32)cc1)N1CCC(C(=O)O)C1 (stereo not drawn) [Compound I-84, 1-(1-(4-(2-(2-aminopyridin-3-yl)-5-phenyl-3H-imidazo[4,5-b]pyridin-3-yl)phenyl)ethyl)pyrrolidine-3-carboxylic acid] | ≥ 2000 nM | < 20000 nM
CC1(C)CN(Cc2ccc(-n3c(-c4cccnc4N)nc4ccc(-c5ccccc5)nc43)cc2)CCC1C(=O)O (stereo not drawn) [Compound I-85, 1-[[4-[2-(2-amino-3-pyridyl)-5-phenyl-imidazo[4,5-b]pyridin-3-yl]phenyl]methyl]-3,3-dimethyl-piperidine-4-carboxylic acid] | ≥ 2000 nM | < 20000 nM
CC(C)(N[C@@H]1CC[C@@H](C(=O)O)C1)c1ccc(-n2c(-c3cccnc3N)nc3ccc(-c4ccccc4)nc32)cc1 [Compound I-87, (1R,3R)-3-((2-(4-(2-(2-aminopyridin-3-yl)-5-phenyl-3H-imidazo[4,5-b]pyridin-3-yl)phenyl)propan-2-yl)amino)cyclopentane-1-carboxylic acid] | ≥ 2000 nM | < 20000 nM
CC(C)(N[C@@H]1CC[C@H](C(=O)O)C1)c1ccc(-n2c(-c3cccnc3N)nc3ccc(-c4ccccc4)nc32)cc1 [Compound I-88, (1S,3R)-3-((2-(4-(2-(2-aminopyridin-3-yl)-5-phenyl-3H-imidazo[4,5-b]pyridin-3-yl)phenyl)propan-2-yl)amino)cyclopentane-1-carboxylic acid] | ≥ 2000 nM | < 20000 nM
CC(C)(NC1CCC(C(=O)O)CC1)c1ccc(-n2c(-c3cccnc3N)nc3ccc(-c4ccccc4)nc32)cc1 (stereo not drawn) [Compound I-89, (1r,4r)-4-((2-(4-(2-(2-aminopyridin-3-yl)-5-phenyl-3H-imidazo[4,5-b]pyridin-3-yl)phenyl)propan-2-yl)amino)cyclohexane-1-carboxylic acid] | ≥ 2000 nM | < 20000 nM
CC(C)(C(=O)O)C1CCN(Cc2ccc(-n3c(-c4cccnc4N)nc4ccc(-c5ccccc5)nc43)cc2)CC1 [Compound I-92, 2-(1-(4-(2-(2-aminopyridin-3-yl)-5-phenyl-3H-imidazo[4,5-b]pyridin-3-yl)benzyl)piperidin-4-yl)-2-methylpropanoic acid] | ≥ 2000 nM | < 20000 nM

Continued, values first:

IC50 [1] | IC50 [2] | Structure (SMILES)
< 500 nM | < 20000 nM | CC1(C)C[C@H](CN2CC(c3ccc(-n4c(-c5cccnc5N)nc5ccc(-c6ccccc6)nc54)cc3)C2)CC[C@@H]1C(=O)O [Compound I-70, (1S,4R)-4-((3-(4-(2-(2-aminopyridin-3-yl)-5-phenyl-3H-imidazo[4,5-b]pyridin-3-yl)phenyl)azetidin-1-yl)methyl)-2,2-dimethylcyclohexane-1-carboxylic acid]
< 500 nM | < 20000 nM | CC1(C)C[C@H](CN2CC(c3ccc(-n4c(-c5cccnc5N)nc5ccc(-c6ccccc6)nc54)cc3)C2)CC[C@H]1C(=O)O [Compound I-71, (1R,4R)-4-((3-(4-(2-(2-aminopyridin-3-yl)-5-phenyl-3H-imidazo[4,5-b]pyridin-3-yl)phenyl)azetidin-1-yl)methyl)-2,2-dimethylcyclohexane-1-carboxylic acid]
< 500 nM | < 20000 nM | C[C@]1(C(=O)O)CC[C@@H](CN2CC(c3ccc(-n4c(-c5cccnc5N)nc5ccc(-c6ccccc6)nc54)cc3)C2)CC1 [Compound I-75, (1s,4s)-4-((3-(4-(2-(2-aminopyridin-3-yl)-5-phenyl-311-imidazo[4,5-b]pyridin-3-yl)phenyl)azetidin-1-yl)methyl)-1-methylcyclohexane-1-carboxylic acid]
500 to 2000 nM | < 20000 nM | Nc1ncccc1-c1nc2ccc(-c3ccccc3)nc2n1-c1ccc(C2CCN(CC3CCC(C(=O)O)CC3)CC2)cc1 (stereo not drawn) [Compound I-76, 4-((4-(4-(2-(2-aminopyridin-3-yl)-5-phenyl-3H-imidazo[4,5-b]pyridin-3-yl)phenyl)piperidin-1-yl)methyl)cyclohexane-1-carboxylic acid]
500 to 2000 nM | < 20000 nM | Nc1ncccc1-c1nc2ccc(-c3ccccc3)nc2n1-c1ccc(C2CCN(CC3CCC(C(=O)O)CC3)C2)cc1 (stereo not drawn) [Compound I-78, 4-((3-(4-(2-(2-aminopyridin-3-yl)-5-phenyl-3H-imidazo[4,5-b]pyridin-3-yl)phenyl)pyrrolidin-1-yl)methyl)cyclohexane-1-carboxylic acid]
500 to 2000 nM | < 20000 nM | CC1(C(=O)O)CCN(Cc2ccc(-n3c(-c4cccnc4N)nc4ccc(-c5ccccc5)nc43)cc2)CC1 [Compound I-86, 1-[[4-[2-(2-amino-3-pyridyl)-5-phenyl-imidazo[4,5-b]pyridin-3-yl]phenyl]methyl]-4-methyl-piperidine-4-carboxylic acid]
< 500 nM | < 20000 nM | Nc1ncccc1-c1nc2ccc(-c3ccccc3)nc2n1-c1ccc(CN[C@H]2CC[C@H](C(=O)O)CC2)cc1 [Compound I-90, (1r,4r)-4-((4-(2-(2-aminopyridin-3-yl)-5-phenyl-3H-imidazo[4,5-b]pyridin-3-yl)benzyl)amino)cyclohexane-1-carboxylic acid]
< 500 nM | < 20000 nM | Nc1ncccc1-c1nc2ccc(-c3ccccc3)nc2n1-c1ccc(CN[C@H]2CC[C@@H](C(=O)O)CC2)cc1 [Compound I-91, (1s,4s)-4-((4-(2-(2-aminopyridin-3-yl)-5-phenyl-3H-imidazo[4,5-b]pyridin-3-yl)benzyl)amino)cyclohexane-1-carboxylic acid]
500 to 2000 nM | < 20000 nM | Nc1ncccc1-c1nc2ccc(-c3ccccc3)nc2n1-c1ccc(CN2CC3(CC(C(=O)O)C3)C2)cc1 [Compound I-93, 2-(4-(2-(2-aminopyridin-3-yl)-5-phenyl-3H-imidazo[4,5-b]pyridin-3-yl)benzyl)-2-azaspiro[3.3]heptane-6-carboxylic acid]
